The data set can be described thus: molar enthalpy of vaporization or sublimation. To be noted: Crystal, Knudsen effusion method coupled with mass spectrometer, from logarithm of peak intensity.

Numbers after ± are expanded uncertainties.

Four compounds from the NIST ThermoML archive (doi:10.1016/j.jct.2014.02.003) can be followed below.

Turning to `N[C@@H](Cc1ccc(O)cc1)C(=O)O` [3-(p-hydroxyphenyl)-L-alanine], the molar enthalpy (471.15 K) was 200 ± 1.8 kJ/mol. For `N[C@@H](Cc1ccccc1)C(=O)O` [L-phenylalanine], the molar enthalpy (418.15 K) worked out at 158 ± 2 kJ/mol. `O=C(O)c1ccccc1` [benzoic acid]: the molar enthalpy (308.21 K) is 90.8 ± 1.9 kJ/mol. On to `N[C@@H](Cc1c[nH]c2ccccc12)C(=O)O` [L-tryptophan], for which the molar enthalpy (450.15 K) amounted to 184 ± 2.3 kJ/mol.
